From US20250263395A1, “COMPOUNDS THAT MEDIATE PROTEIN DEGRADATION AND METHODS OF USE THEREOF” (Monte Rosa Therapeutics AG, priority 2022, published 2025)

Columns and labels:
[1] = target: CDK2 (Homo sapiens (Human), UniProt P24941); assay: CDK2 NanoBiT assay (HiBiT-tagged CDK2 degradation); assay type: cell-based; conditions: HEK293, HEK293 clonal line, C-terminal HiBiT tag on CDK2, LgBiT; 24 hours
Procedure: Example 145. NanoBiT Assay
A HEK293 clonal line with a CRISPR knock-in C-terminal HiBiT tag on CDK2 and stably expressing LgBiT protein was obtained from Promega (Madison, WI). Cells were plated at 5000 cells per well using Multiflo (BioTek) in 384-well white solid bottom plates (Corning, 3570BC) in 25 ul volume in DMEM media (DMEM, high glucose, HEPES, no phenol red (ThermoFisher Scientific, 21063029)) containing 10% FBS (Corning, 35-075-CV), 1% Peniciliin/Streptomycin ((ThermoFisher Scientific, 15140-122), and 1% Endurazine (Nano-Glo Endurazine Live Cell Substrate (Promega, N2571)). Cells were incubated for 16 hours at 37 C, 5% CO2. 75 nL of a compound at 30 μM were dosed into the plate using an Echo® 650 liquid handler (Labcyte). Cells were incubated at 37° C., 5% CO2 for 24 hours and then signal was read on a Pherastar FSX using “LUM plus” optic module.
Analysis was performed in Scinamic (Scinamic, Cambridge, MA). Luminescence response (R) was calculated by the formula: response=100*(S−N)/(P−N) where S is the signal of the well, N and P the mean negative and positive control values respectively of the same plate. The luminescence response was then fitted in Scinamic using a 3-parameter agonist logistic fit (hillslope=1, EC50>0, top/bottom unconstrained).

[2] = target: CRBN-DDB1 (Homo sapiens (Human), UniProt Q96SW2); assay: CRBN HTRF assay (Cy5-Thalidomide probe displacement); assay type: binding; conditions: CRBN-DDB1 2.5 nM, Cy5-Thalidomide 100 nM, 30 min; Ki from geometric mean IC50 by Cheng-Prusoff
Procedure: Compound activity was monitored in a Homogenous Time-Resolved Fluorescence (HTRF) assay using 1-[5-({2-[2-(2-{[2-(2,6-dioxopiperidin-3-yl)-1,3-dioxo-2,3-dihydro-1H-isoindol-4-yl]oxy}acetamido)ethoxy]ethyl}carbamoyl)pentyl]-3,3-dimethyl-2-[(1E,3E)-5-[(2E)-1,3,3-trimethyl-5-sulfo-2,3-dihydro-1H-indol-2-ylidene]penta-1,3-dien-1-yl]-3H-indol-1-ium-5-sulfonate as a fluorescent probe. Biochemical assays were conducted in Greiner white 384 well HiBase plates (Cat. No 784075-25) in 10 μL total volume. A one pot detection solution of CRBN-DDB1 (2.5 nM), Anti-His Terbium Cryptate Gold (1×, PerkinElmer Cat. #: 61HI2TLB), and Cy5-Thalidomide (100 nM, Tenova Cat.: T52461) was prepared in 20 mM HEPES, 20 mM NaCl, 0.2 mM TCEP, 0.2 mM EDTA, and 0.005% Tween20 was dispensed to each assay plate. Compounds were stored in dry, ambient temperatures at 10 mM. A 10-point, 1:3 dilution series was prepared from 10 mM stock concentrations in Echo-compatible LDV plates. 10 nL of each compound dilution series was dispensed into assays wells using an Echo 650 (Labcyte inc. USA). 10 nL of 10 mM Lenalidomide was transferred into the active-control wells for the assay and 10 nL of DMSO was transferred into the neutral-control wells. The assay was then allowed to incubate for 30 min at ambient temperature after transferring compound. Plate measurements were taken on a Pherastar FSX (BMG Labtech, Germany) using the HTRF Red filter (Ex. 337 nm, em1: 620 nm, em2: 665 nm) (Flashes: 50, Integration time: 60-400 us, Z-height: 10 mm, Ratio-multiplier: 10,000). The HTRF signal was then subsequently normalized to the neutral and active controls. Analysis and IC50 values were derived using KNIME analytics (KNIME Zurich) transformation and fitting within Collaborative Drug Discovery (Collaborative Drug Discovery USA). Ki was derived from the geometric mean of the IC50 values using the Cheng-Prustoff transformation.

CRBN-DDB1, sequence (Q96SW2 whole entry): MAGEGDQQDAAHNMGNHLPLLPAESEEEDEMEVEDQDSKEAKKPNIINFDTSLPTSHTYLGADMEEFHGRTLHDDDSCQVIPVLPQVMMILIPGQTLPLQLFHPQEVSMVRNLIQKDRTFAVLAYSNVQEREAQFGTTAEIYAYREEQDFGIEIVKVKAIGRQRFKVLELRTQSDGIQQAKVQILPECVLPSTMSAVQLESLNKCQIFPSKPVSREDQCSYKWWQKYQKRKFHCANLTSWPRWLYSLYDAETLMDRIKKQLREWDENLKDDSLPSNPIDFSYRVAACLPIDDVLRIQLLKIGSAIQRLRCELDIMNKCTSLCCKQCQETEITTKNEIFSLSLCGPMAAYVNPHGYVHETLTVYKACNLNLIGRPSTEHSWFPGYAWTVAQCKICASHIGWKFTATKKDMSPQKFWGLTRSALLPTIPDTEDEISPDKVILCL
CRBN-DDB1, sequence (Q16531 whole entry partner): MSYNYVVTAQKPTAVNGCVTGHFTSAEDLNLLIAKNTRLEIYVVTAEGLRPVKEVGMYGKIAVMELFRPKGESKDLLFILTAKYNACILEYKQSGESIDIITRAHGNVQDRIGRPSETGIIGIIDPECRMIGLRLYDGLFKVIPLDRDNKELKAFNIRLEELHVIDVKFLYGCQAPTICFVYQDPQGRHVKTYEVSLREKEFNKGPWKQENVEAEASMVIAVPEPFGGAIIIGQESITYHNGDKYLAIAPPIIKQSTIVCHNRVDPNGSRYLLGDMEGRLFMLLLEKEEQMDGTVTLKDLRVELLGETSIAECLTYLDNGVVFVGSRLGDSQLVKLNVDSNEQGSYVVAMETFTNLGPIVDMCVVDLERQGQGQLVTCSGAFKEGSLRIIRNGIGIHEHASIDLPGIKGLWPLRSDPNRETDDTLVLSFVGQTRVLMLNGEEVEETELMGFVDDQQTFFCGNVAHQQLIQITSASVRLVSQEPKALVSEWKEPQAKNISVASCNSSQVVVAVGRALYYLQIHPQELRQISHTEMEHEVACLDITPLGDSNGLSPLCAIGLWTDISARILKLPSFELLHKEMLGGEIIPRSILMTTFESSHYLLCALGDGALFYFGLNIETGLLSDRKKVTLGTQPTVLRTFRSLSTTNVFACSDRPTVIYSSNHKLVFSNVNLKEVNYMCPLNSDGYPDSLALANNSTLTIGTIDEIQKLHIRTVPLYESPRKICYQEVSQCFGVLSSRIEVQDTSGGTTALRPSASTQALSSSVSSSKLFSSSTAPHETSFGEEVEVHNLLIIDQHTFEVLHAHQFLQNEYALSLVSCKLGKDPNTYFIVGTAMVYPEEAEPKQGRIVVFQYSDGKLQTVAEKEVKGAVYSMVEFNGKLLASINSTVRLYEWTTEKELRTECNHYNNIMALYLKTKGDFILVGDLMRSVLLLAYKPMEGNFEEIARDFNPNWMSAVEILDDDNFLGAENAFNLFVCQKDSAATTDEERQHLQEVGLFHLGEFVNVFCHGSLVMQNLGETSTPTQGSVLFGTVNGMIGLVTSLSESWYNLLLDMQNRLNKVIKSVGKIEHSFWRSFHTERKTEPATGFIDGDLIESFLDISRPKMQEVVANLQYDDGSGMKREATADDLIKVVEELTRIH

Dmax [1] [%]	Ki [2] [nM]	Structure (SMILES)
10 to 50	≤ 100	CN(C)C(=O)N1CCC(OC(=O)NC2CN(c3cc(F)c(C4CCC(=O)NC4=O)c(F)c3)C2)CC1 (centres unmarked) [Compound 19, 1-(dimethylcarbamoyl)piperidin-4-yl (1-(4-(2,6-dioxopiperidin-3-yl)-3,5-difluorophenyl)azetidin-3-yl)carbamate]
10 to 50	≤ 100	CN(C(=O)N1CC[C@@H](OC(=O)NC2CN(c3cc(F)c(C4CCC(=O)NC4=O)c(F)c3)C2)C1)C1CC1 (stereo partly drawn) [Compound 25, (R)-1-(cyclopropyl(methyl)carbamoyl)pyrrolidin-3-yl (1-(4-(2,6-dioxopiperidin-3-yl)-3,5-difluorophenyl)azetidin-3-yl)carbamate]
10 to 50	≤ 100	CN(C)C(=O)N1CC[C@H](OC(=O)NC2CN(c3cc(F)c(C4CCC(=O)NC4=O)c(F)c3)C2)C1 (stereo partly drawn) [Compound 27, (S)-1-(dimethylcarbamoyl)pyrrolidin-3-yl (1-(4-(2,6-dioxopiperidin-3-yl)-3,5-difluorophenyl)azetidin-3-yl)carbamate]
50 to 80	≤ 100	O=C1CCC(c2c(F)cc(N3CC(NC(=O)OC4CN(C(=O)N5CCC5)C4)C3)cc2F)C(=O)N1 (centres unmarked) [Compound 30, 1-(azetidine-1-carbonyl)azetidin-3-yl (1-(4-(2,6-dioxopiperidin-3-yl)-3,5-difluorophenyl)azetidin-3-yl)carbamate]
50 to 80	≤ 100	O=C1CCC(c2c(F)cc(N3CC(NC(=O)OC4CN(C(=O)N5CC6(CCC6)C5)C4)C3)cc2F)C(=O)N1 (centres unmarked) [Compound 31, 1-(2-azaspiro[3.3]heptane-2-carbonyl)azetidin-3-yl (1-(4-(2,6-dioxopiperidin-3-yl)-3,5-difluorophenyl)azetidin-3-yl)carbamate]
50 to 80	≤ 100	O=C1CCC(c2c(F)cc(N3CC(NC(=O)OC4CN(C(=O)N5CCC56CCC6)C4)C3)cc2F)C(=O)N1 (centres unmarked) [Compound 33, 1-(1-azaspiro[3.3]heptane-1-carbonyl)azetidin-3-yl (1-(4-(2,6-dioxopiperidin-3-yl)-3,5-difluorophenyl)azetidin-3-yl)carbamate]
50 to 80	≤ 100	O=C1CCC(c2c(F)cc(N3CC(NC(=O)OC4CN(C(=O)N5CCCCC5)C4)C3)cc2F)C(=O)N1 (centres unmarked) [Compound 36, 1-(piperidine-1-carbonyl)azetidin-3-yl (1-(4-(2,6-dioxopiperidin-3-yl)-3,5-difluorophenyl)azetidin-3-yl)carbamate]
50 to 80	≤ 100	CN(C(=O)N1CC(OC(=O)NC2CN(c3cc(F)c(C4CCC(=O)NC4=O)c(F)c3)C2)C1)C1CC1 (centres unmarked) [Compound 40, 1-(cyclopropyl(methyl)carbamoyl)azetidin-3-yl (1-(4-(2,6-dioxopiperidin-3-yl)-3,5-difluorophenyl)azetidin-3-yl)carbamate]
10 to 50	≤ 100	O=C1CCC(c2c(F)cc(N3CC(NC(=O)OC4CN(C(=O)C5CC5)C4)C3)cc2F)C(=O)N1 (centres unmarked) [Compound 41, 1-(cyclopropanecarbonyl)azetidin-3-yl (1-(4-(2,6-dioxopiperidin-3-yl)-3,5-difluorophenyl)azetidin-3-yl)carbamate]

Continued, compound first:

Structure (SMILES)	Dmax [1] [%]	Ki [2] [nM]
N#Cc1ccc(C(=O)N2CC(OC(=O)NC3CN(c4cc(F)c(C5CCC(=O)NC5=O)c(F)c4)C3)C2)cc1 (centres unmarked) [Compound 20, 1-(4-cyanobenzoyl)azetidin-3-yl (1-(4-(2,6-dioxopiperidin-3-yl)-3,5-difluorophenyl)azetidin-3-yl)carbamate]	10 to 50	≤ 100
COc1ccc(C(=O)N2CC(OC(=O)NC3CN(c4cc(F)c(C5CCC(=O)NC5=O)c(F)c4)C3)C2)cc1 (centres unmarked) [Compound 21, 1-(4-methoxybenzoyl)azetidin-3-yl (1-(4-(2,6-dioxopiperidin-3-yl)-3,5-difluorophenyl)azetidin-3-yl)carbamate]	10 to 50	≤ 100
O=C1CCC(c2c(F)cc(N3CC(NC(=O)OC4CN(C(=O)c5ccc(F)cc5)C4)C3)cc2F)C(=O)N1 (centres unmarked) [Compound 22, 1-(4-fluorobenzoyl)azetidin-3-yl (1-(4-(2,6-dioxopiperidin-3-yl)-3,5-difluorophenyl)azetidin-3-yl)carbamate]	50 to 80	100 to 1000
Cc1ccc(C(=O)N2CC(OC(=O)NC3CN(c4cc(F)c(C5CCC(=O)NC5=O)c(F)c4)C3)C2)cc1 (centres unmarked) [Compound 23, 1-(4-methylbenzoyl)azetidin-3-yl (1-(4-(2,6-dioxopiperidin-3-yl)-3,5-difluorophenyl)azetidin-3-yl)carbamate]	50 to 80	≤ 100
O=C1CCC(c2c(F)cc(N3CC(NC(=O)OC4CN(C(=O)c5ccccc5)C4)C3)cc2F)C(=O)N1 (centres unmarked) [Compound 24, 1-benzoylazetidin-3-yl (1-(4-(2,6-dioxopiperidin-3-yl)-3,5-difluorophenyl)azetidin-3-yl)carbamate]	10 to 50	≤ 100
O=C1CCC(c2c(F)cc(N3CC(NC(=O)OC4CN(C(=O)c5ccc(Cl)cc5)C4)C3)cc2F)C(=O)N1 (centres unmarked) [Compound 26, 1-(4-chlorobenzoyl)azetidin-3-yl (1-(4-(2,6-dioxopiperidin-3-yl)-3,5-difluorophenyl)azetidin-3-yl)carbamate]	50 to 80	≤ 100
O=C1CCC(c2c(Cl)cc(N3CC(NC(=O)OCC4CC5(CCC5)C4)C3)cc2Cl)C(=O)N1 (centres unmarked) [Compound 28, spiro[3.3]heptan-2-ylmethyl (1-(3,5-dichloro-4-(2,6-dioxopiperidin-3-yl)phenyl)azetidin-3-yl)carbamate]	> 80	≤ 100
Cc1cccnc1N1CC(OC(=O)NC2CN(c3cc(F)c(C4CCC(=O)NC4=O)c(F)c3)C2)C1 (centres unmarked) [Compound 29, 1-(3-methylpyridin-2-yl)azetidin-3-yl (1-(4-(2,6-dioxopiperidin-3-yl)-3,5-difluorophenyl)azetidin-3-yl)carbamate]	50 to 80	≤ 100
O=C1CCC(c2c(F)cc(N3CC(NC(=O)OCCc4ccccc4)C3)cc2F)C(=O)N1 (centres unmarked) [Compound 34, phenethyl (1-(4-(2,6-dioxopiperidin-3-yl)-3,5-difluorophenyl)azetidin-3-yl)carbamate]	50 to 80	100 to 1000
O=C1CCC(c2c(F)cc(N3CC(NC(=O)OCc4ccc(OC(F)(F)F)cc4)C3)cc2F)C(=O)N1 (centres unmarked) [Compound 35, 4-(trifluoromethoxy)benzyl (1-(4-(2,6-dioxopiperidin-3-yl)-3,5-difluorophenyl)azetidin-3-yl)carbamate]	> 80	100 to 1000
O=C1CCC(c2c(F)cc(N3CC(NC(=O)OCc4ccccc4)C3)cc2F)C(=O)N1 (centres unmarked) [Compound 37, benzyl (1-(4-(2,6-dioxopiperidin-3-yl)-3,5-difluorophenyl)azetidin-3-yl)carbamate]	50 to 80	100 to 1000
O=C1CCC(c2c(F)cc([C@@H]3C[C@H]3NC(=O)OCC3CC4(CCC4)C3)cc2F)C(=O)N1 (some centres unmarked) [Compound 38]	> 80	≤ 100
CC(C)O[C@H]1C[C@@H](OC(=O)NC2CN(c3cc(F)c(C4CCC(=O)NC4=O)c(F)c3)C2)C1 (some centres unmarked) [Compound 39, (1s, 3s)-3-isopropoxycyclobutyl (1-(4-(2,6-dioxopiperidin-3-yl)-3,5-difluorophenyl)azetidin-3-yl)carbamate]	50 to 80	≤ 100
